According to paper doi:10.1101/2025.02.17.637997, “Phosphorylation-State Modulated Binding of HSP70: Structural Insights and Compensatory Protein Engineering” (bioRxiv, 2025):

What was measured:
Type in all cases: binding
[1] = biological target: T1, CHIP TPR (residues 21–154) (Homo sapiens, UniProt Q9UNE7); experiment: Biolayer interferometry, CHIP TPR (21-154); conditions: BLI; pEEVD vs EEVD; Fig. 2E
T1 construct: the extended TPR domain of CHIP (residues 21–154) using BLI; His; made in house
Source text: (§1) A complete list of vectors is listed in Table S1 and deposited at Addgene (pending ID). Plasmids were maintained and propagated in DH5-alpha E. coli and purified using the Miniprep plasmid kit (Qiagen) or Quantum Prep® Plasmid Midiprep Kit (Bio-Rad). We used the Q5 Site-Directed Mutagenesis Kit (NEB) or […] II XL (NC9045762, Agilent Technologies) site-directed mutagenesis kit for editing plasmids and validated via DNA sequencing. Lifetein or Genscript synthesized the peptides used in the study. […] The amino-terminal biotin-labeled HSP70 tail peptide (biotin-[…], termed as biotin-EEVD) and the amino-terminal biotin-labeled pT-HSP70 tail peptide (biotin-GSGSGP(pT)IEEVD, termed as biotin-pEEVD) were purchased (Lifetein). The peptides used for fluorescent polarization were N-FITC-Ahx-[…] (EEVD) or N-FITC-Ahx-GSGP(pT)IEEVD (pEEVD). Recombinant CHIP-TPR constructs were recombinantly expressed using the pHis//2 CHIP-TPR (21–154) plasmid and purified as previously described ([21]) and additional CHIP proteins were purified as previously described ([22]).
Bio-layer interferometry measured peptide binding using a BLItz instrument (FortéBio, Sartorius) with streptavidin (SA) sensors. […] Affinities (Kd) were calculated by the BLItz Pro software as Kd=koff/kon, where koff and kon were determined by individual fits to the “dissociation step” and “association step,” respectively, for each run.

CHIP-G132N = biological target: T2, CHIP-G132N (Homo sapiens, UniProt Q9UNE7, G132N); experiment: Biolayer interferometry, CHIP-G132N TPR; conditions: BLI; kon; CHIP-G132N TPR towards pEEVD; Fig. S2
T2 construct: Recombinant CHIP-TPR constructs were recombinantly expressed using the pHis//2 CHIP-TPR (21–154) plasmid; His; made in house
T2 sequence (Q9UNE7 21-154 G132N): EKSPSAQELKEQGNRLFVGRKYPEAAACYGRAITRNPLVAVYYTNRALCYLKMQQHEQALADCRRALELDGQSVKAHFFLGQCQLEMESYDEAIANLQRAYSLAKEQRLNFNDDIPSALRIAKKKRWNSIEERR
Experimental: Bio-layer interferometry measured peptide binding using a BLItz instrument (FortéBio, Sartorius) with streptavidin (SA) sensors. Biotin-EEVD and biotin-pEEVD were solubilized in 20 mM HEPES, 150 mM NaCl, pH 7.0. Affinity measurements were made using the advanced kinetic protocol within the BLItz Pro system software. Biosensors were hydrated for ten minutes in assay buffer comprising 20 mM HEPES, 150 mM NaCl, 5 mM β-mercaptoethanol, pH 7.2. For each affinity measurement, a new, hydrated biosensor was placed on the BLItz tip, and the “Initial Baseline” step was completed by incubation for 30 seconds in 500 μl assay buffer in an opaque black microcentrifuge tube (Argos Technologies). Peptides were loaded during the “Loading Step” by incubating the tip in 4 μl of either peptide for 60 seconds. The “Baseline step” was then conducted by incubation for 30 seconds in 500 μl assay buffer in an opaque black microcentrifuge tube. The “Association step” was performed by incubating the tip in 4 μl of the appropriate TPR protein construct, at protein concentrations of 1 to 25 μM, in assay buffer in an opaque black microcentrifuge tube for 120 seconds. […] Affinities (Kd) were calculated by the BLItz Pro software as Kd=koff/kon, where koff and kon were determined by individual fits to the “dissociation step” and “association step,” respectively, for each run.

CHIP-WT or CHIP-G132N = experiment: Fluorescence polarization, phosphorylated vs unmodified EEVD peptide; conditions: FP, CHIP-WT or CHIP-G132N (Fig. 2B)
Source text: as §1
The N-terminally-labelled peptides were loaded into PCR reaction tubes at 2X (40 nM), with the final concentration being 20 nM. Recombinant CHIP constructs were added into the tubes at the indicated concentrations. […] The polarization reads were normalized to the dilution buffer. […]

T1 sequence (Q9UNE7 21-154): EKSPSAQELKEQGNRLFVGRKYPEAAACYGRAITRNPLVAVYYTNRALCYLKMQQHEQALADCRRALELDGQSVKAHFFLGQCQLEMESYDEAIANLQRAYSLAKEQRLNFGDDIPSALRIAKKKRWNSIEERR

N-FITC-Ahx-GSGP(pT)IEEVD [pEEVD, phosphorylated HSP70 tail peptide used for fluorescent polarization]
decrease in binding affinity of CHIP TPR towards the phosphorylated EEVD tail [1]: ~10 fold | association rate (CHIP-G132N): higher association rates | decrease in interaction compared to the unmodified threonine (CHIP-WT or CHIP-G132N): 6–10 fold
